Reference: patent publication US20170129958A1, “COMBINATION THERAPY” (ImClone LLC, priority 2014, published 2017)
Like-named read-outs stand apart in the source and are kept apart here.

Tests used:
[1] = system: patients with advanced STS; conditions: interim analysis; for Disease Control Rate (CR + PR + SD) (%) (90% CI) / ORR (CR + PR) (%) (90% CI): RECIST 1.1
Method: The Study is an open-label, multicenter, Phase 2 trial in which patients with advanced STS not amenable to treatment with surgery or radiotherapy are treated with olaratumab in combination with doxorubicin or doxorubicin alone.
Enrolled patients who meet all eligibility criteria are randomized 1:1 to one of two treatment arms, Arm A or Arm B. Arm A patients receive olaratumab in combination with doxorubicin (hereinafter the “Combination Arm”) and Arm B patients receive doxorubicin alone (hereinafter the “Doxorubicin Arm”). Randomization of this Study is performed according to a dynamic randomization algorithm using 4 pre-defined risk factors: PDGFRα expression (positive vs. negative), number of previous lines of treatment (0 vs. 1+lines), histological tumor type (i.e., leiomyosarcoma vs. synovial sarcoma vs. other tumor type), and ECOG performance status (0-1 vs. 2). This dynamic randomization procedure is used to minimize imbalance between treatment groups. To determine tumor type and PDGFRα expression in patients, a tumor sample from either a biopsy or previously archived tumor tissue sample is sufficient. Biopsy is required to be performed within 21 days prior to randomization; archived tissue sample must also be available within this timeframe.
Combination Arm: 64 patients randomized in the Combination Arm receive 15 mg/kg of olaratumab on Days 1 and 8 of each 21-day treatment cycle, in combination with 75 mg/m^2 doxorubicin administered on Day 1 of each cycle. (Note: if premedication is required prior to the first doxorubicin infusion, this is to be done after the completion of olaratumab infusion, not before the olaratumab infusion. This premedication may be administered within the hour that follows completion of the olaratumab infusion.) The actual (not planned) administration of each doxorubicin infusion defines Day 1 of each 21-day treatment cycle. The combination treatment just described is to continue for up to 8 cycles at the investigator's discretion. During Cycles 5 through 8, patients being treated with doxorubicin may also be administered 750 mg/m^2 dexrazoxane on Day 1 of each cycle, (at the investigator's discretion) prior to doxorubicin on Day 1 of each 21-day cycle. If the dose of doxorubicin is reduced at any point in the Study, the dose of dexrazoxane is to be reduced accordingly, maintaining a dosage ratio of 10:1. For example, if doxorubicin is reduced to 60 mg/m^2, then dexrazoxane is to be reduced to 600 mg/m^2. Doxorubicin may be administered within the hour that follows completion of the olaratumab infusion. In the absence of PD or other withdrawal criteria, patients in the Combination Arm who have completed eight cycles of therapy are to receive subsequent olaratumab monotherapy, administered on Days 1 and 8 of each 21-day cycle. Furthermore, if doxorubicin is discontinued (e.g., for reasons of toxicity) prior to end of cycle 8 and in the absence of withdrawal criteria, patients may continue to receive olaratumab monotherapy. For patients who discontinue olaratumab during the first 8 cycles of treatment, doxorubicin may be continued (for up to 8 cycles), provided no withdrawal criteria are met.
Doxorubicin Arm: 65 patients randomized in the Doxorubicin Arm receive 75 mg/m^2 doxorubicin on Day 1 of each cycle, for up to 8 cycles at the investigator's discretion. The actual (not planned) administration of each doxorubicin infusion defines Day 1 of each 21-day treatment cycle. During cycles 5 through 8, 750 mg/m^2 dexrazoxane may also be administered on Day 1 of each cycle, (at the investigator's discretion) prior to doxorubicin on Day 1 of each 21-day cycle. If the dose of doxorubicin is reduced at any point in the Study, the dose of dexrazoxane is to be reduced accordingly, maintaining a dosage ratio of 10:1. For example, if doxorubicin is reduced to 60 mg/m^2, then dexrazoxane is to be reduced to 600 mg/m^2.

[2] = system: SKLMS-1 leiomyosarcoma xenograft; test: SKLMS-1 leiomyosarcoma xenograft model; type: in vivo, nu/nu athymic mice; conditions: day 21; olaratumab 60 mg/kg (loading dose 214 mg/kg), doxorubicin 3 mg/kg, i.p. twice a week; versus saline control
Method: 6 to 7-week-old female nu/nu athymic mice are injected with 5×10^6 SKLMS-1 (ATCC #HBT-88) cells/mouse in 50% Matrigel (BD Biosciences #356235). When tumors are approximately 300 mm^3 in volume, the mice are randomized by tumor volume into 4 treatment groups (n=12): Group 1 control mice are dosed with USP Saline (Aldwin Scientific #2F7124) at 10 μL/gram, Group 2 mice are dosed with olaratumab at 60 mg/kg (loading dose 214 mg/kg), Group 3 mice are dosed with doxorubicin (Sigma #D-1515) at 3 mg/kg and Group 4 mice are dosed with a combination of olaratumab and doxorubicin at the monotherapy concentrations of 60 mg/kg olaratumab and 3 mg/kg doxorubicin. The combinations are dosed so that olaratumab is administered 1-2 hours prior to doxorubicin on the days of treatment. All treatments are administered via intra-peritoneal injection twice a week on Tuesday and Friday.
(§1) Olaratumab and doxorubicin are prepared in USP Saline. Tumor volume is measured by three dimensional caliper measurements twice a week during the course of the study and calculated as volume in mm^3=L (longer of measured dimension)×W^2 (shorter dimension)×(pi/6). […] Relative changes in tumor volume (% T/C) are calculated using the tumor volume measurements taken at day 21 and the baseline tumor volume is the volume recorded on or just prior to first day of dosing.

[3] = system: KHOS/NP osteosarcoma xenograft; test: KHOS/NP osteosarcoma xenograft model; type: in vivo, nu/nu athymic mice; conditions: day 32; olaratumab 60 mg/kg (loading dose 214 mg/kg), doxorubicin 3 mg/kg, i.p. twice a week; versus saline control
Method: 6 to 7-week-old female nu/nu athymic mice are injected with 1×10^6 KHOS/NP (ATCC #CRL-1544) cells/mouse in 50% Matrigel (BD Biosciences #356235). When tumors are approximately 450 mm^3 in volume, the mice are randomized by tumor volume into 4 treatment groups (n=12): Group 1 control mice are dosed with USP Saline (Aldwin Scientific #2F7124) at 10 μL/gram, Group 2 mice are dosed with olaratumab at 60 mg/kg (loading dose 214 mg/kg), Group 3 mice are dosed with doxorubicin (Sigma #D-1515) at 3 mg/kg and Group 4 mice are dosed with a combination of olaratumab and doxorubicin at the monotherapy concentrations of 60 mg/kg olaratumab and 3 mg/kg doxorubicin. The combinations are dosed so that doxorubicin is administered 3 hours prior to olaratumab on the days of treatment. All treatments are administered via intra-peritoneal injection twice a week on Monday and Thursday.
as §1, with “32, whereas” for “21 and”

[4] = system: A204 rhabdoid tumor xenograft; test: A204 rhabdoid xenograft model; type: in vivo, nu/nu athymic mice; conditions: day 30; olaratumab 40 mg/kg i.p. 3x a week; versus HuIgG control
Method: 7 to 8-week-old female nu/nu athymic mice are injected with 5×10^6 A204 (ATCC #CRL-7900) cells/mouse in 100% Matrigel (BD Biosciences #356235). When tumors are approximately 340 mm^3 in volume, the mice are randomized by tumor volume into 2 treatment groups (n=12): Group 1 control mice are dosed with HuIgG (Equitech-Bio #SLH66-0001) at 40 mg/kg and Group 2 mice are dosed with olaratumab at 40 mg/kg. All treatments are administered via intra-peritoneal injection 3×a week on Monday, Wednesday and Friday.
Olaratumab is diluted in USP Saline (Aldwin Scientific #2F7124) at 4 mg/mL. Tumor volume is measured by three dimensional caliper measurements twice a week during the course of the study and calculated as volume in mm^3=L (longer of measured dimension)×W^2 (shorter dimension)×(pi/6). A repeated measures ANOVA is used to evaluate the differences in tumor growth and body weight between the treatment groups. Relative changes in tumor volume (%T/C) are calculated using the tumor volume measurements taken at day 30, whereas the baseline tumor volume is the volume recorded on or just prior to first day of dosing.

[5] = patients sub-typed with leiomyosarcoma

Molecule	OS Median Weeks (90% CI) ([1]; all STS subtypes, Kaplan-Meier) [weeks]	PFS Median Weeks (90% CI) ([1]; all STS subtypes, Kaplan-Meier, olaratumab 15 mg/kg Days 1 and 8, doxorubicin 75 mg/m^2 Day 1, 21-day cycle) [weeks]	12-month OS rate ([1]; 12 months) [%]	18-month OS rate ([1]; 18 months) [%]	Disease Control Rate (CR + PR + SD) (%) (90% CI) [1]	ORR (CR + PR) (%) (90% CI) [1]	Disease Control Rate (CR + PR + SD) (%) (90% CI) ([1]; listed as Doxorubicin Arm)	ORR (CR + PR) (%) (90% CI) ([1]; listed as Doxorubicin Arm)	PFS Other Sarcoma Median Weeks (90% CI) ([1]; patients sub-typed as other sarcomas) [weeks]	OS Leiomyosarcoma Median Weeks (90% CI) [1, 5] [weeks]	PFS Leiomyosarcoma Median Weeks (90% CI) [1, 5] [weeks]	OS Other Sarcoma Median Weeks (90% CI) ([1]; patients sub-typed with other sarcomas) [weeks]	% T/C (relative change in tumor volume) [2] [%]	% T/C (relative change in tumor volume) [3] [%]	% T/C (relative change in tumor volume) [4] [%]
COc1cccc2c1C(=O)c1c(O)c3c(c(O)c1C2=O)C[C@@](O)(C(=O)CO)C[C@@H]3O[C@H]1C[C@H](N)[C@H](O)[C@H](C)O1 [doxorubicin]	58.7	17.9	55.1	40.0	53.8	10.8	53.8	10.8	19.0	45.3	15.7	78.1	64	72	–
olaratumab: recombinant human monoclonal IgG1 anti-PDGFRα antibody; two heavy chains SEQ ID NO: 9, two light chains SEQ ID NO: 10; CAS 1024603-93-7	–	–	–	–	–	–	–	–	–	–	–	–	64	79	37
